Data set [1] has as its system Ramos.
In data set [2] the test system is SU-DHL-8 cells. The conditions noted are these: agents and agent-linker intermediates; value in parentheses; 3 days incubation.
The subject of data set [3] is Ramos. The data set can be described thus: cells. The conditions noted are these: Homo sapiens, 72 h, read-out: EC50 in picoM, Ramos.
Data set [4] relates to SU-DHL-8 cells. The data set can be described thus: cells. The conditions noted are these: Homo sapiens, SU-DHL-8, 72 h, read-out: EC50 in picoM, SUDHL8.
The subject of data set [5] is HL60, U937, MV411, Hut78, H929, and RAMOS. Briefly: In vitro cytotoxic activity on six human blood cancer cell types, overall statements. The conditions noted are these: all cell lines tested except RAMOS. In kind it is cell-based. As for the experimental part: Agent loading was determined to be about 4.

Read-outs that look alike come from different tables or passages of the source. Some results are limits rather than exact numbers.

By EC50 is commonly meant the concentration giving half of the maximal effect. For the compound `C[C@]12CC[C@H](OC(=O)NCCCN3CCN(CCCN)CC3)CC1CCC1C2CC[C@]2(C)[C@@H](c3ccc(=O)oc3)CC[C@]12O` (some centres unmarked) [CEN-371], the “% viab., Ramos” value in the data set with Ramos [1] (agents and agent-linker intermediates, value in parentheses, 3 days incubation) was 0%. Moreover, the “% viab., SUDHL8” value in the data set on SU-DHL-8 cells [2] is listed as 0%. Also, the figures for the 50% effective concentration (EC50) in the data set on Ramos [3] and with SU-DHL-8 cells [4] were 7.81 nM and 11 nM, respectively.

For the compound `C[C@]12CC[C@H](OC(=O)NCCCN3CCN(CCCN)CC3)C[C@H]1CC[C@@H]1[C@@H]2CC[C@]2(C)[C@@H](C3=CC(=O)OC3)CC[C@]12O`, the EC50 in the data set on Ramos [3] and with SU-DHL-8 cells [4] was > 50 nM throughout.

With `CC1=C(/C=C/C(C)=C/C=C/C(C)=C/C(=O)O)C(C)(C)CCC1` [ATRA, all-trans-retinoic acid], in data set [5], the “effect of ATRA alone on cell growth” value was “slowed cell growth”.

With `C[C@]12CCC(OC[C@@H]3OC[C@H](N)C(O)C3O)C=C1CCC1C2CC[C@]2(C)[C@@H](c3ccc(=O)oc3)CC[C@]12O` (some centres unmarked) [CEN09-106], the “% viab., SUDHL8” value in the data set on SU-DHL-8 cells [2] is reported as 0%. The figures for the EC50 with Ramos [3] and with SU-DHL-8 cells [4] were 1.9 nM and 2.07 nM, respectively.

For the compound `C[C@]12CC[C@H](O)C[C@H]1CC[C@@H]1[C@@H]2CC[C@]2(C)[C@@H](c3ccc(=O)oc3)CC[C@]12O` [Bufalin, reference compound], the EC50 in the data set on Ramos [3] stood at 7.3 nM; in the data set on SU-DHL-8 cells [4], 16 nM.

As for `C[C@]12CC[C@H](O)C=C1CC[C@@H]1[C@@H]2CC[C@]2(C)[C@@H](c3ccc(=O)oc3)CC[C@]12O` [Scillarenin, reference compound], the figures for the EC50 in the data set on Ramos [3] and in the data set with SU-DHL-8 cells [4] were 17 nM and 18 nM, respectively.

On to `C[C@]12CC[C@H](OC(=O)NCCCNCCCN)CC1CCC1C2CC[C@]2(C)C(c3ccc(=O)oc3)CC[C@]12O` (stereo in doubt) [CEN-373, 5-{(1S,2S,5S,7R,10R,11S,14S,15R)-5-[3-(3-Aminopropylamino)propylaminocarbonyloxy]-11-hydroxy-2,15-dimethyltetracyclo[8.7.0.02,7.011,15]heptadec-14-yl}-2-pyranone], for which the EC50 turned out to be 4 nM in the data set on Ramos [3] and 5.9 nM in the data set with SU-DHL-8 cells [4].

As to `C[C@]12CC[C@H](OC[C@@H]3OC[C@H](N)C(O)C3O)CC1CCC1C2CC[C@]2(C)[C@@H](C3=CC(=O)OC3)CC[C@]12O` (some centres unmarked) [CEN-319], the “% viab., Ramos” value in the data set with Ramos [1] (human, 3 days) turned out to be 0%. Moreover, the figures for the 50% effective concentration (EC50) in the data set on Ramos [3] and in the data set on SU-DHL-8 cells [4] were 5.8 nM and 8.4 nM, respectively.

On to `C[C@]12CC[C@H](O)C[C@H]1CC[C@@H]1[C@@H]2CC[C@]2(C)[C@@H](C3=CC(=O)OC3)CC[C@]12O` [Digitoxigenin, reference compound], for which the concentration for a half-maximal effect (EC50) in the data set with Ramos [3] and in the data set on SU-DHL-8 cells [4] was > 50 nM in each case.

As for `CN(CCCN)CCCNC(=O)O[C@H]1CC[C@@]2(C)C(CCC3C2CC[C@]2(C)C(c4ccc(=O)oc4)CC[C@]32O)C1` (stereo in doubt) [CEN-372, 5-[(1S,2S,5S,7R,10R,11S,14S,15R)-5-{3-[N-Methyl(3-aminopropyl)amino]propylaminocarbonyloxy}-11-hydroxy-2,15-dimethyltetracyclo[8.7.0.02,7.011,15]heptadec-14-yl]-2-pyranone], the 50% effective concentration (EC50) with Ramos [3] came to 3.6 nM; in the data set with SU-DHL-8 cells [4], 4.4 nM.

Source of the values: patent US10675352B2 (CENTROSE, LLC, priority 2014, dated 2020).
